We go through one compound from ChEMBL document CHEMBL6092226, “Tilting the Scales toward EGFR Mutant Selectivity: Expanding the Scope of Bivalent "Type V" Kinase Inhibitors” (J Med Chem, 2024).

As a reminder, the EC50 is the concentration giving half of the maximal effect.

The structures appear in SMILES notation. Calls of active or inactive are those of the source. No cut-off for these calls is given here.

The target of assay [1] is Epidermal growth factor receptor (Homo sapiens, UniProt P00533). The assay is described as follows: Time-dependent irreversible inhibition of N-terminal GST-tagged wildtype human EGFR cytoplasmic domain (669 to 1210 residues) extracted from Sf21 insect cells assessed as apparent inactivation constant (Ki) incubated for 240 mins in presence of ATP by fluorescence based analysis. The following applies: read-out: Ki(app).

The target in assay [2] is Epidermal growth factor receptor (Homo sapiens, UniProt P00533, L858R). The assay is described as follows: Time-dependent irreversible inhibition of GST-tagged EGFR L858R mutant cytoplasmic domain (669 to 1210 residues) (unknown origin) assessed as apparent inactivation constant (Ki) incubated for 240 mins in presence of ATP by fluorescence based analysis. The conditions noted are these: read-out: Ki(app).

For assay [3], the system named is BaF3. The assay is described as follows: Antiproliferative activity against mouse BaF3 cells harboring EGFR exon 19del mutant incubated for 72 hrs by MTT assay. The conditions noted are these: BaF3, 72 h. The class given is functional, cell-based. For orientation: Tetrazolium dyes change colour on reduction, which living cells bring about.
The target in assay [4] is Tyrosine-protein kinase BTK (Homo sapiens) (UniProt Q06187). The assay is described as follows: Inhibition of BTK (unknown origin) at 1 uM by Eurofins DiscoverX KINOMEscan analysis.
In assay [5] the target is T1, Cytoplasmic tyrosine-protein kinase BMX (Homo sapiens) (UniProt P51813).
T1 sequence (whole entry): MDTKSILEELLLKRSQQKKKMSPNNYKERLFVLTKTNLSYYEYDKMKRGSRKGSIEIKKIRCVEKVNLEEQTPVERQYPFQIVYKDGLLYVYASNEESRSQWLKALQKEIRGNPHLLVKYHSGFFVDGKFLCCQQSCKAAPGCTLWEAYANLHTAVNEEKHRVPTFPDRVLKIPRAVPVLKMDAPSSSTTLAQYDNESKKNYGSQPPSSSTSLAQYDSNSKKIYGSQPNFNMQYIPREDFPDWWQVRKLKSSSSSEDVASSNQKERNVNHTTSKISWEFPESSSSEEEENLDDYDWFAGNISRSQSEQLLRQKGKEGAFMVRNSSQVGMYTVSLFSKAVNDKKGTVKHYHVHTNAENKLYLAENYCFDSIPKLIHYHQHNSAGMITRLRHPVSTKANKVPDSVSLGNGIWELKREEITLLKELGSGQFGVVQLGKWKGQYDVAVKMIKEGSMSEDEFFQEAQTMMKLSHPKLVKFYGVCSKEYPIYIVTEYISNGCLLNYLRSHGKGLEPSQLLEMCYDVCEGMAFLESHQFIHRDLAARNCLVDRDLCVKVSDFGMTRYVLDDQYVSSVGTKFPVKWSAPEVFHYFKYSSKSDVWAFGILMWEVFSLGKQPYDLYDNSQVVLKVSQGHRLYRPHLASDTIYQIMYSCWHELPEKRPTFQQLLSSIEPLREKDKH
The assay is described as follows: Inhibition of BMX (unknown origin) at 1 uM by Eurofins DiscoverX KINOMEscan analysis.

For assay [6], the target named is T2, Tyrosine-protein kinase JAK3 (Homo sapiens) (UniProt P52333).
T2 sequence (whole entry): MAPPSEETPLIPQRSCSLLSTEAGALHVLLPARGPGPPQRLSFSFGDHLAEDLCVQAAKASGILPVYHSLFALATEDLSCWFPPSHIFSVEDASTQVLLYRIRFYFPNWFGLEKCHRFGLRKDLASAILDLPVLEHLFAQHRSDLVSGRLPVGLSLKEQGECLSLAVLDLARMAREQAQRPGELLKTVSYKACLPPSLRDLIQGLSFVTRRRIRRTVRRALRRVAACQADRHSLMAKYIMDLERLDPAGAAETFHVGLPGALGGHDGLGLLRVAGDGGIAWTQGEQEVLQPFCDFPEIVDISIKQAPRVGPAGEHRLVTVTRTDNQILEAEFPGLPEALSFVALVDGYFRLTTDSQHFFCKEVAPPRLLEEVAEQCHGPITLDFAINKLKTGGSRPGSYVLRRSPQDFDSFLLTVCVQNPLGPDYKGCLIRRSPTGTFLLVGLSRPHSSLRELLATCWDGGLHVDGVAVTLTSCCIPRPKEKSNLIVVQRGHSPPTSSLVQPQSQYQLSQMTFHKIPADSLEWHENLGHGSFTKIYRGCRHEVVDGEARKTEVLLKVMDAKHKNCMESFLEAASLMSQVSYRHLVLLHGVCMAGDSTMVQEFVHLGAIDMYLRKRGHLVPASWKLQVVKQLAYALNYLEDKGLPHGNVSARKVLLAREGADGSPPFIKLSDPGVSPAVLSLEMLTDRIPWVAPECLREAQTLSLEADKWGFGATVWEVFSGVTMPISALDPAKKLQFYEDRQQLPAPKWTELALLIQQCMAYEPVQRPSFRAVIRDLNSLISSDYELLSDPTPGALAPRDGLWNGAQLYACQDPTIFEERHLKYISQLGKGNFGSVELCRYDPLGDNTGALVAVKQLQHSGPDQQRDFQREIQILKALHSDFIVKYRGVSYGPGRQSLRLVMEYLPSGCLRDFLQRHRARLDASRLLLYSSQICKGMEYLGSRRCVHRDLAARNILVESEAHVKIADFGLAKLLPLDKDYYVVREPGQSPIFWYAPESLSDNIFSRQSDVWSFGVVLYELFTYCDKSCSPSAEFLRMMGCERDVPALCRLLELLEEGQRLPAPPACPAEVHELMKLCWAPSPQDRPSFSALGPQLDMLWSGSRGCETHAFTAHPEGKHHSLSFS
The experiment in a line: Inhibition of JAK3 (unknown origin) at 1 uM by Eurofins DiscoverX KINOMEscan analysis.

Assay [7] has as its target T3, Tyrosine-protein kinase TXK (Homo sapiens) (UniProt P42681).
T3 sequence (whole entry): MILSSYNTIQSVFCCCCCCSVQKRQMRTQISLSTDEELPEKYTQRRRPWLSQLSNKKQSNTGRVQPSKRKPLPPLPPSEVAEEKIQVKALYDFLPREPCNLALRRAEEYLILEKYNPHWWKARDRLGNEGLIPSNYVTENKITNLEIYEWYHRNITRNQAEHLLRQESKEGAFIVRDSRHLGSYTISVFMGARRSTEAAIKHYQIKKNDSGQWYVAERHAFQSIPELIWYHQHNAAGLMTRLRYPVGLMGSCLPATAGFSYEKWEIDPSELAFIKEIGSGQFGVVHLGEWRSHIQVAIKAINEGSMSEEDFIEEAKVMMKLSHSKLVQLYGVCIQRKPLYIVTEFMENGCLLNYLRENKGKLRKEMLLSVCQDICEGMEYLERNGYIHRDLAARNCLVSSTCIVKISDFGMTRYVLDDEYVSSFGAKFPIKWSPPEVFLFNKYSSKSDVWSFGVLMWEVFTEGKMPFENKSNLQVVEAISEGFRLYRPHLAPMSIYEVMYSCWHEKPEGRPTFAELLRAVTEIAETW
The experiment in a line: Inhibition of TXK (unknown origin) at 1 uM by Eurofins DiscoverX KINOMEscan analysis.

For assay [8], the system named is BaF3. The experiment in a line: cells. The following applies: Mus musculus, BaF3, 72 h.
The test system of assay [9] is BaF3. The assay is described as follows: cells. The following applies: Mus musculus, BaF3, 72 h. This is another data set of the same source.

Chain of Epidermal growth factor receptor (Homo sapiens, UniProt P00533) (P00533 whole entry, the tested form may be a part): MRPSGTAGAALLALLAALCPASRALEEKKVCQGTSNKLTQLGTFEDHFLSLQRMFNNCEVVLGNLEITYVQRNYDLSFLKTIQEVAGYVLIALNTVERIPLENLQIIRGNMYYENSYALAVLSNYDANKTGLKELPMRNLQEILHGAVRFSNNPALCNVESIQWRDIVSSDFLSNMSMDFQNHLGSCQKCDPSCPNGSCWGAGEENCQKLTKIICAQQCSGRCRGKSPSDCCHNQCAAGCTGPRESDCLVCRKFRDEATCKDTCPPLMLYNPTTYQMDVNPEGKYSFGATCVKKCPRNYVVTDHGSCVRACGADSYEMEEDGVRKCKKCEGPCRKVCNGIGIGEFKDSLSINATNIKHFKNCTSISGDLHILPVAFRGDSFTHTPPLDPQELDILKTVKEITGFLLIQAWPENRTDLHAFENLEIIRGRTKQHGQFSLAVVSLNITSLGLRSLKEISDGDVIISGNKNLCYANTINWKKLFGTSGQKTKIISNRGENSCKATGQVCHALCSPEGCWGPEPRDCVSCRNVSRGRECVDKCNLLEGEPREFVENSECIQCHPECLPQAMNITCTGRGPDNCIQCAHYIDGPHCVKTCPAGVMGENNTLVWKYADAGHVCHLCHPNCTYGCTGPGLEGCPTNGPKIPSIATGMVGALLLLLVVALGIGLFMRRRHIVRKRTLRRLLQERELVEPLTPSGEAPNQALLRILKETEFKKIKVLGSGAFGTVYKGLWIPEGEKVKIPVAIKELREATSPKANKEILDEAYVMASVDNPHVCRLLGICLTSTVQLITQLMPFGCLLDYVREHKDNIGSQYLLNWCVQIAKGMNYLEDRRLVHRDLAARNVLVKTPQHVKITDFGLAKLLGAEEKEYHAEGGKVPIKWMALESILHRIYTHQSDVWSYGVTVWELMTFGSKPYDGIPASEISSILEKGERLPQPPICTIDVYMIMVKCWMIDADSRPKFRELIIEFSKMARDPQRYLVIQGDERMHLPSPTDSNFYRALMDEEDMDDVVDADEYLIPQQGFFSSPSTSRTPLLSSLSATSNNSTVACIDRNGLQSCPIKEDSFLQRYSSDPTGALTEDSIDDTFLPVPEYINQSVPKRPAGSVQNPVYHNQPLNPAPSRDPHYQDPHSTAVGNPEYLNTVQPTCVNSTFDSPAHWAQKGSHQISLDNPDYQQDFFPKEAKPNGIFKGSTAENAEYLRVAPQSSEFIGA
Chain of Tyrosine-protein kinase BTK (Homo sapiens) (Q06187 whole entry): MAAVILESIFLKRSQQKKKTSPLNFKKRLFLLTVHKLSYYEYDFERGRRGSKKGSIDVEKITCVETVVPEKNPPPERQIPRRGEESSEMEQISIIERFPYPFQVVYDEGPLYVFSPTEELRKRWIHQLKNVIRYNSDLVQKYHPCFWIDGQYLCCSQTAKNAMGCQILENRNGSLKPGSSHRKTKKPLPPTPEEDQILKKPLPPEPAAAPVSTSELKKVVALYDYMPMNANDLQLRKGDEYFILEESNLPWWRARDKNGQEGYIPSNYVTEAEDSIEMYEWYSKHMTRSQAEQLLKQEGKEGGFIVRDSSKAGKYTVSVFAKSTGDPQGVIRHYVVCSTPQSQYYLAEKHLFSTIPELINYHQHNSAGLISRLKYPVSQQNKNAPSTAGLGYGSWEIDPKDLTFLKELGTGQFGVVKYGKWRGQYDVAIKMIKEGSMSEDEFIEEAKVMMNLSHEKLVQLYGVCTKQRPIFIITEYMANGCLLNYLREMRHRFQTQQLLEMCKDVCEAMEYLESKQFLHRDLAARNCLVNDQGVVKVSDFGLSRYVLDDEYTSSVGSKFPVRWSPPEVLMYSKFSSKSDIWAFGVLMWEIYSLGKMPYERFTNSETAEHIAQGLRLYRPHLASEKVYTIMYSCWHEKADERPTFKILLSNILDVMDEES
Chain of Epidermal growth factor receptor (Homo sapiens, UniProt P00533, L858R) (P00533 25-1210 L858R limits assumed): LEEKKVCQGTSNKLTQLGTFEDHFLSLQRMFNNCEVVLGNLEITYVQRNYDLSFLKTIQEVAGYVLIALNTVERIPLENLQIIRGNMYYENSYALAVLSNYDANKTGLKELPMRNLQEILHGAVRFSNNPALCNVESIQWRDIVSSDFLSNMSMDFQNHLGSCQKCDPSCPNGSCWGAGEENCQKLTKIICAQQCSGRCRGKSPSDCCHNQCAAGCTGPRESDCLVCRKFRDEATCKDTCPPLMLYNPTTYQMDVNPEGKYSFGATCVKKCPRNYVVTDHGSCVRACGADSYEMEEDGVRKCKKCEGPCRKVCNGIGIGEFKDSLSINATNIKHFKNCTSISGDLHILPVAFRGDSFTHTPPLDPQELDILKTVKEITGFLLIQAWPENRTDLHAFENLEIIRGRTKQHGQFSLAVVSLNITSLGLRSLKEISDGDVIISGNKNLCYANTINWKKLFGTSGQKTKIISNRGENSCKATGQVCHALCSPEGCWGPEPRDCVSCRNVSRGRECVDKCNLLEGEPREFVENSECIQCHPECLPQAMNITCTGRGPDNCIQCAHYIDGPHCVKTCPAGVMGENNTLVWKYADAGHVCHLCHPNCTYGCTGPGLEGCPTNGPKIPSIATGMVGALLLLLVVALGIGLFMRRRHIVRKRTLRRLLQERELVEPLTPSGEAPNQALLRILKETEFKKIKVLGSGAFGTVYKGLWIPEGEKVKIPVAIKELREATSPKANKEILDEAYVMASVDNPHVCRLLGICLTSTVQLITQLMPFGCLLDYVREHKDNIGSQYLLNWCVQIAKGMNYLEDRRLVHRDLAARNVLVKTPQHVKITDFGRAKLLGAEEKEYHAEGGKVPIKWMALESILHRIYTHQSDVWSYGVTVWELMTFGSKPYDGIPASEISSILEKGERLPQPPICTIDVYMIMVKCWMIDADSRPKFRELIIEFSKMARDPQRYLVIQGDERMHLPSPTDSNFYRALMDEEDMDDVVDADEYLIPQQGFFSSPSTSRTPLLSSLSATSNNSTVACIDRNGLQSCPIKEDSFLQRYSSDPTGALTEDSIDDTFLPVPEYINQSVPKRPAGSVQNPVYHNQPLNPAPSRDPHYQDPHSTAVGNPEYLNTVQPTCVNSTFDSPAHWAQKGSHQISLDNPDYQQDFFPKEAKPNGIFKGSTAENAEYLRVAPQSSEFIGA

Take `C=CC(=O)Nc1ccc(OC)c(Nc2cc(-c3[nH]c(SC)nc3-c3cccc(NC(=O)c4cccc(O)c4CN4Cc5ccccc5C4=O)c3)ccn2)c1`: the Ki in [1] is 1320 nM; in assay [2] it was 276 nM. For the same compound, the EC50 in [3] was found to be 950 nM; in assay [8], 150 nM; in assay [9], 750 nM. In addition, the inhibition result in assay [4], in [5], in [6] and in [7] was “inactive” each time.
